The nature of data set [1]: Inhibition of NF-kappaB-mediated gene transcription expressed in TNF-alpha-stimulated human HeLa cells for 30 mins before TNFalpha challenge measured after 8 hrs by steady-glo luciferase reporter gene assay. The format is cell-based. In general terms: A reporter such as luciferase makes a cellular process visible.
The test system of another data set is Blood. Briefly: Antiinflammatory activity in human whole blood assessed as inhibition of IL-1-beta-stimulated IL6 production preincubated 2 hrs before IL1-beta challenge measured after 18 hrs by ELISA. The format is functional, tissue-based.
The test system of a further data set is HeLa. Kind of data set: Stimulation of NF-kappaB-mediated gene transcription expressed in human HeLa cells for 30 mins before TNFalpha challenge measured after 8 hrs by steady-glo luciferase reporter gene assay. The format is cell-based.
Data set [2] is described as follows: Cytotoxicity against human 184B5 cells after 24 hrs by MTS assay. The format is cell-based. In general terms: Formazan colour is commonly taken as a measure of viable cells.

From ChEMBL document CHEMBL1138438, “Structural-activity relationship study of highly-functionalized imidazolines as potent inhibitors of nuclear transcription factor-kappaB mediated IL-6 production” (Bioorg Med Chem, 2009) come the findings set out here.

Active and inactive are the calls of the source. The rule behind the calls is not given here.

As usually defined, the EC50 is the midpoint of the concentration-response curve. Broadly, the IC50 is the concentration needed to halve the response being measured. What is called CC50 is the concentration giving 50% cytotoxicity. A lower CC50 goes with greater toxicity to the cells. In the case of `CCOC(=O)[C@]1(c2ccccc2)N=C(c2ccccc2)N(Cc2ccccc2)[C@@H]1c1ccc([N+](=O)[O-])cc1` (racemic), the EC50 in data set [1] was found to be 3.4 µM. Besides, in the data set with Blood, the Activity entry was “Dose-dependent effect”. For the same molecule, the IC50 was 0.5 µM in the data set on Blood (read-out: IC50) and 0.537 µM in the data set on Blood (read-out: Log IC50 (converted)). The result with HeLa was inactive. The molecule further registered a CC50 at 24 h in data set [2] of more than 10 µM.
Molecule `COC(=O)[C@]1(C(C)C)N=C(c2ccccc2)N(Cc2ccccc2)[C@@H]1c1ccccc1` (racemic) registered a half-maximal effective concentration (EC50) in data set [1] of 20 µM. In the data set on Blood, the Activity result was “Dose-dependent effect”. Moreover, the IC50 in the data set with Blood (read-out: IC50) is 7.1 µM; in the data set on Blood (read-out: Log IC50 (converted)), 7.08 µM. For the same molecule, the outcome in the data set with HeLa was inactive. The molecule also came in with a CC50 at 24 h in data set [2] of more than 10 µM.
Take `CCOC(=O)[C@]1(c2ccccc2)N=C(c2ccccc2)N(Cc2ccccc2)[C@@H]1c1ccc(OC)cc1` (racemic): the EC50 in data set [1] was 3.6 µM. For the same molecule, the Activity entry with Blood is “Dose-dependent effect”. Also, the results for the half-inhibitory concentration (IC50) in the data set with Blood (read-out: IC50) and in the data set with Blood (read-out: Log IC50 (converted)) were 1.3 µM and 1.29 µM, respectively. The outcome with HeLa was inactive. In data set [2], this molecule registered a CC50 at 24 h of more than 10 µM.
In data set [1], `CCOC(=O)[C@]1(c2ccccc2)N=C(c2ccccc2)N(Cc2ccccc2)[C@@H]1c1ccc(N)cc1` (racemic) gave an EC50 of 10.4 µM. In addition, in the data set with Blood, the Activity result is “Dose-dependent effect”. The results for the IC50 in the data set on Blood (read-out: IC50) and in the data set on Blood (read-out: Log IC50 (converted)) were 0.5 µM and 0.457 µM, respectively. Also, the outcome with HeLa was inactive. Moreover, in data set [2], the half-maximal cytotoxic concentration (CC50) at 24 h is more than 10 µM.
The molecule `CCOC(=O)[C@]1(c2ccccc2)N=C(c2ccccc2)N(Cc2ccc(Cl)cc2)[C@@H]1c1ccccc1` (racemic) came in with an EC50 in data set [1] of 4.2 µM. The Activity entry in the data set on Blood is “Dose-dependent effect”. The concentration for half-maximal inhibition (IC50) is 1.6 µM in the data set with Blood (read-out: IC50) and 1.58 µM with Blood (read-out: Log IC50 (converted)). Also, the outcome in the data set with HeLa was inactive. The molecule further showed a CC50 at 24 h in data set [2] of more than 10 µM.
As to `CCOC(=O)[C@]1(c2ccccc2)N=C(c2ccccc2)N(Cc2ccc(F)cc2)[C@@H]1c1ccccc1` (racemic), the midpoint of the response in data set [1], the EC50, lay at 5.2 µM. For the same molecule, in the data set with Blood, the Activity result was “Dose-dependent effect”. Moreover, the IC50 in the data set on Blood (read-out: IC50) and in the data set on Blood (read-out: Log IC50 (converted)) was 1.2 µM in each case. Also, the outcome in the data set on HeLa was inactive. This molecule had a CC50 at 24 h in data set [2] of more than 10 µM.
Take `CCOC(=O)[C@]1(c2ccccc2)N=C(c2ccccc2)N(C(=O)c2ccccc2)[C@@H]1c1ccccc1` (racemic): a half-maximal response in data set [1] (EC50) required 24.9 µM. The Activity result in the data set on Blood is “Dose-dependent effect”. For the same molecule, the values for the half-inhibitory concentration (IC50) in the data set with Blood (read-out: IC50) and in the data set on Blood (read-out: Log IC50 (converted)) were 6.6 µM and 6.61 µM, respectively. Also, the outcome with HeLa was inactive. This molecule also showed a cytotoxic concentration (CC50) at 24 h in data set [2] of more than 10 µM.
As for `COC(=O)[C@]1(Cc2ccccc2)N=C(c2ccccc2)N(Cc2ccccc2)[C@@H]1c1ccccc1` (racemic), in data set [1], the EC50 came to 5.3 µM. The Activity entry in the data set with Blood was “Dose-dependent effect”. The IC50 was 4.1 µM with Blood (read-out: IC50) and 4.07 µM in the data set with Blood (read-out: Log IC50 (converted)). In the data set on HeLa, the result was inactive. The molecule also gave a CC50 at 24 h in data set [2] of more than 10 µM.
